The values that follow come from patent US20070232577A1, “Synthetic pentacyclic triterpenoids and derivatives of betulinic acid and betulin” (Advanced Life Sciences, Inc., priority 2006, published 2007).

As a reminder, the IC50 is the concentration that inhibits the measured activity by half.

One data set concerns Daoy (glioblastoma). Kind of data set: MTS cell viability assay, Daoy. To be noted: for IC50: Homo sapiens, Daoy, 72 h, read-out: IC50 Daoy. For orientation: Tetrazolium assays rely on reduction of a dye to a coloured formazan, in cell work by metabolically active cells.
In a further data set the test system is MCF-7 (breast carcinoma). Kind of data set: MTS cell viability assay, MCF-7. The format is cell-based. To be noted: Homo sapiens, MCF7, 72 h. The method, then: (§1) All treatments were performed in triplicate. […] Cells were incubated at 37° C. for 72 h.
The subject of the next data set is LN-229 (glioblastoma). Kind of data set: MTS cell viability assay, LN-229. Type of data set: cell-based. The note with it: Homo sapiens, 72 h. How it is done:
as §1

For a further data set, the system named is A-375 (melanoma). Kind of data set: MTS cell viability assay, A-375. Type of data set: cell-based. The note with it: Homo sapiens, 72 h. How it is done: as §1
For data set [1], the system named is OVCAR-3 (ovarian carcinoma). Briefly: MTS cell viability assay, OVCAR-3. Type of data set: cell-based. To be noted: Homo sapiens, 72 h. How it is done:
as §1

For another data set, the system named is HT-29 (colon carcinoma). Briefly: MTS cell viability assay, HT-29. To be noted: Homo sapiens, 72 h. Type of data set: cell-based. The method, then:
as §1

Another data set deals with SK-MEL-2 (melanoma). Briefly: MTS cell viability assay, SK-MEL-2. To be noted: Homo sapiens, SK-MEL-2, 72 h, read-out: IC50 SK-MEL-2.

≈ marks a conversion by molar mass, not a printed value.

Description for Daoy (glioblastoma): (§2) Cells were plated, the evening before treatment, for each treatment on 96-well plates (1×10^4 cells/well) in 100 μL volume per well. Drug solutions were prepared by diluting each test compound in DSMO (10 mM) with the appropriate cell growth media for each individual cell line, or in “Universal Media” if several cell lines were to be assayed in parallel, immediately prior to cell treatment. Universal Media consisted of 5 mL sodium pyruvate (100×liquid stock, CellGro), 5 mL glucose (100×, 45% liquid stock, CellGro), 5 mL Penicillin/Streptomycin (100×liquid stock, CellGro), 10 mL sodium bicarbonate (50×liquid stock, CellGro), 25 mL Fetal Calf Serum, 1.25 mL insulin (4 mg/mL, Gibco) and 449 mL RPMI media with 2 mM glutamine for a total volume of 500 mL. Cells were treated by aspirating media from each well and adding 80 μL of each drug solution to the attached cells. All treatments were performed in triplicate. Growth media (80 μL) were added to 3 blank wells (no cells) to measure background from the growth media Growth media alone (no DMSO or test compond) was added to 2 wells containing cells to measure the baseline MTS activity and vehicle (DMSO) control solutions were also included to monitor basal toxicity from DMSO. Cells were incubated at 37° C. for 72 h. MTS reagent (per 96-well plate) were prepared by combining 2 mL of MTS working solution (Cell Titer AQueous Non-Radioactive Cell Proliferation Assay, Promega, cat#G1112), 100 μL of 0.92 mg/mL phenazine methosulfate/Dulbecco's PBS and 2.1 mL growth media. MTS reagent (40 μL) were added to each well and incubated at 37° C. for 1.5 to 4 h. Plates were gently shaken by hand until solution in each well appeared homogenous. Absorbances at 490 nm were measured on a plate reader at multiple time points following the addition of MTS reagent for each plate. Triplicate absorbance (490 nm) measurements were averaged following background (no cell) subtraction for each drug concentration. Percent Cell Viability was calculated for each drug concentration using the following equation: {[Absorbances(drug treated)]/[Absorbances(DMSO treated)]}×100%
(§3) Percent viability (y-axis) was plotted against drug concentration (x-axis) and the resulting graph was used to determine the 50% inhibitory concentration (IC50) for each drug.
Description for SK-MEL-2 (melanoma): as §2, §3

As to `C=C(C)[C@@H]1CC[C@]2(C(=O)O)CC[C@]3(C)[C@H](CC[C@@H]4[C@@]5(C)CC[C@H](O)C(C)(C)[C@@H]5CC[C@]43C)[C@@H]12` [Compound 1, (1R,3aS,5aR,5bR,7aR,9S,11aR, 11bR,13aR,13bR)-9-hydroxy-5a,5b,8,8,11a-pentamethyl-1-(prop-1-en-2-yl)icosahydro-1H-cyclopenta[a]chrysene-3a-carboxylic acid, reference compound], the IC50 in the data set on Daoy (glioblastoma) stood at 31.3 ± 2.28 µg/mL (≈ 68.5 µM); in the data set on MCF-7 (breast carcinoma), 50 µg/mL (≈ 109 µM); in the data set on LN-229 (glioblastoma), 61 µg/mL (≈ 134 µM); in the data set on A-375 (melanoma), 51 µg/mL (≈ 112 µM); in data set [1], 59 ± 4.58 µg/mL (≈ 129 µM); with HT-29 (colon carcinoma), 37 µg/mL (≈ 81 µM). For the same molecule, the IC50 with SK-MEL-2 (melanoma) was found to be 33.2 ± 3.77 µg/mL (≈ 72.7 µM).

Turning to `C=C(C)[C@@H]1CC[C@]2(COC(=O)CBr)CC[C@]3(C)[C@H](CC[C@@H]4[C@@]5(C)CCC(=O)C(C)(C)[C@@H]5CC[C@]43C)[C@@H]12` [Compound 18, ((1R,3aS,5aR,5bR,7aR,11aR,11bR,13aR,13bR)-5a,5b,8,8,11a-pentamethyl-9-oxo-1-(prop-1-en-2-yl)icosahydro-1H-cyclopenta[a]chrysen-3a-yl)methyl 2-bromoacetate], the IC50 with Daoy (glioblastoma) is below 2 µg/mL; in the data set with MCF-7 (breast carcinoma) it was 48 µg/mL (≈ 85.5 µM); in the data set with A-375 (melanoma) it was 14 µg/mL (≈ 24.9 µM); in data set [1] it was 8 µg/mL (≈ 14.2 µM); in the data set on HT-29 (colon carcinoma) it was 36 µg/mL (≈ 64.1 µM); with SK-MEL-2 (melanoma) it was 42 µg/mL (≈ 74.8 µM).

As for `C=C(C)[C@@H]1CC[C@]2(COC(=O)COC)CC[C@]3(C)[C@H](CC[C@@H]4[C@@]5(C)CC[C@H](OC(C)=O)C(C)(C)[C@@H]5CC[C@]43C)[C@@H]12` [Compound 19, ((1R,3aS,5aR,5bR,7aR,9S,11aR,11bR,13aR,13b R)-9-acetoxy-5a,5b,8,8,11a-pentamethyl-1-(prop-1-en-2-yl)icosahydro-1H-cyclopenta[a]chrysen-3a-yl)methyl 2-methoxyacetate], the half-maximal inhibitory concentration (IC50) was 7 µg/mL (≈ 12.6 µM) in the data set on Daoy (glioblastoma); above 75 µg/mL in the data set with MCF-7 (breast carcinoma); above 75 µg/mL in the data set on LN-229 (glioblastoma); 7 µg/mL (≈ 12.6 µM) in the data set with A-375 (melanoma); above 75 µg/mL in data set [1]; above 75 µg/mL in the data set on HT-29 (colon carcinoma). The IC50 in the data set with SK-MEL-2 (melanoma) came out at 6 µg/mL (≈ 10.8 µM).

On to `C=C(C)[C@@H]1CC[C@]2(COC(=O)COCC)CC[C@]3(C)[C@H](CC[C@@H]4[C@@]5(C)C=C(C#N)C(=O)C(C)(C)[C@@H]5CC[C@]43C)[C@@H]12` [Compound 40, ((1R,3aS,5aR,5bR,7aR,11aR,11bR,13aR,13bR)-10-cyano-5a,5b,8,8,11a-pentamethyl-9-oxo-1-(prop-1-en-2-yl)-2,3,3a,4,5,5a,5b,6,7,7a,8,9,11a,11b,12,13,13a,13b-octadecahydro-1H-cyclopenta[a]chrysen-3a-yl)methyl 2-ethoxyacetate], for which the IC50 with Daoy (glioblastoma) stood at 4 µg/mL (≈ 7.28 µM); with MCF-7 (breast carcinoma), 30 µg/mL (≈ 54.6 µM); in the data set on LN-229 (glioblastoma) it was 28 µg/mL (≈ 50.9 µM); in the data set on A-375 (melanoma) it was 6 µg/mL (≈ 10.9 µM); in data set [1] it was 10 µg/mL (≈ 18.2 µM); with HT-29 (colon carcinoma), 10 µg/mL (≈ 18.2 µM). For the same molecule, the IC50 with SK-MEL-2 (melanoma) is above 10 µg/mL.

For `CC(C)[C@@H]1CC[C@]2(CO)CC[C@]3(C)[C@H](CC[C@@H]4[C@@]5(C)Cc6cnoc6C(C)(C)[C@@H]5CC[C@]43C)[C@@H]12` [Compound 49, [(1S,3aS,5aR,5bR,7aR,12aR,12bR,14aR,14bR)-1-isopropyl-5a,5b,8,8,12a-pentamethyl-1,2,3,4,5,5a,5b,6,7,7a,8,12,12a,12b,13,14,14a, 14b-octadecahydro-3aH-cyclopenta[7,8]chryseno[3,2-d]isoxazol-3a-yl]methanol], the IC50 is 4 µg/mL (≈ 8.55 µM) with Daoy (glioblastoma); above 75 µg/mL with MCF-7 (breast carcinoma); above 75 µg/mL in the data set with LN-229 (glioblastoma); 10 µg/mL (≈ 21.4 µM) with A-375 (melanoma); 50 to 75 µg/mL (≈ 107 to 160 µM) in data set [1]; 50 to 75 µg/mL (≈ 107 to 160 µM) in the data set with HT-29 (colon carcinoma). The IC50 in the data set with SK-MEL-2 (melanoma) is 6 µg/mL (≈ 12.8 µM).

For the molecule `CC(C)[C@@H]1CC[C@]2(COC(=O)CBr)CC[C@]3(C)[C@H](CC[C@@H]4[C@@]5(C)Cc6cnoc6C(C)(C)[C@@H]5CC[C@]43C)[C@@H]12` [Compound 50, [(1S,3aS,5aR,5bR,7aR,12aR,12bR,14aR,14bR)-1-isopropyl-5a,5b,8,8,12a-pentamethyl-1,2,3,4,5,5a,5b,6,7,7a,8,12,12a,12b,13,14,14a, 14b-octadecahydro-3aH-cyclopenta[7,8]chryseno[3,2-d]isoxazol-3a-yl]methyl bromoacetate], the IC50 in the data set on Daoy (glioblastoma) was 4 µg/mL (≈ 6.79 µM); in the data set with MCF-7 (breast carcinoma), 50 µg/mL (≈ 84.9 µM); with LN-229 (glioblastoma) it was 48 µg/mL (≈ 81.5 µM); in the data set on A-375 (melanoma), 25 µg/mL (≈ 42.5 µM); in data set [1] it was 42 µg/mL (≈ 71.3 µM); with HT-29 (colon carcinoma), 40 µg/mL (≈ 67.9 µM). The IC50 in the data set on SK-MEL-2 (melanoma) was above 75 µg/mL.

As to `CC(C)[C@@H]1CC[C@]2(CO)CC[C@]3(C)[C@H](CC[C@@H]4[C@@]5(C)C=C(C#N)C(=O)C(C)(C)[C@@H]5CC[C@]43C)[C@@H]12` [Compound 55, (1S,3aS,5aR,5bR,7aR,11aR,11bR,13aR,13bR)-3a-(hydroxymethyl)-1-isopropyl-5a,5b,8,8,11a-pentamethyl-9-oxo-2,3,3a,4,5,5a,5b,6,7,7a,8,9,11a,11b,12,13,13a,13b-octadecahydro-1H-cyclopenta[a]chrysene-10-carbonitrile], the IC50 with MCF-7 (breast carcinoma) is above 75 µg/mL; with A-375 (melanoma), 4 µg/mL (≈ 8.59 µM); in data set [1] it was 8 µg/mL (≈ 17.2 µM); with HT-29 (colon carcinoma), 7 µg/mL (≈ 15 µM).

Consider `C=C(C)[C@@H]1CC[C@]2(C=O)CC[C@]3(C)[C@H](CC[C@@H]4[C@@]5(C)CCC(=O)C(C)(C)[C@@H]5CC[C@]43C)[C@@H]12` [Compound 66, (1R,3aS,5aR,5bR,7aR,11aR,11bR,13aR,13bR)-5a,5b,8,8,11a-pentamethyl-9-oxo-1-(prop-1-en-2-yl)icosahydro-1H-cyclopenta[a]chrysene-3a-carbaldehyde], for which the IC50 in the data set on Daoy (glioblastoma) was 6 µg/mL (≈ 13.7 µM); in the data set with MCF-7 (breast carcinoma), 38 µg/mL (≈ 86.6 µM); in the data set with LN-229 (glioblastoma), 35 µg/mL (≈ 79.8 µM); with A-375 (melanoma), 15 µg/mL (≈ 34.2 µM); in data set [1], 20 µg/mL (≈ 45.6 µM); in the data set with HT-29 (colon carcinoma) it was 21 µg/mL (≈ 47.9 µM). In addition, the IC50 in the data set on SK-MEL-2 (melanoma) was determined as 28 µg/mL (≈ 63.8 µM). The “selectivity of cytotoxicity for Daoy (in words)” value in the data set with Daoy (glioblastoma) (MTS assay, Daoy versus other cell lines) was “selective toxicity towards Daoy”.

On to `C=C(C)[C@@H]1CC[C@]2(CNCCCl)CC[C@]3(C)[C@H](CC[C@@H]4[C@@]5(C)CC[C@H](O)C(C)(C)[C@@H]5CC[C@]43C)[C@@H]12` [Compound 70, (1R,3aS,5aR,5bR,7aR,9S,11aR,11bR,13aR,13bR)-3a-((2-chloroethylamino)methyl)-5a,5b,8,8,11a-pentamethyl-1-(prop-1-en-2-yl)icosahydro-1H-cyclopenta[a]chrysen-9-ol], for which the IC50 with Daoy (glioblastoma) is below 2 µg/mL; with MCF-7 (breast carcinoma), 54 µg/mL (≈ 107 µM); in the data set with A-375 (melanoma) it was 20 µg/mL (≈ 39.7 µM); in data set [1], 10 µg/mL (≈ 19.8 µM); in the data set on HT-29 (colon carcinoma) it was 19 µg/mL (≈ 37.7 µM); with SK-MEL-2 (melanoma) it was 35 µg/mL (≈ 69.4 µM).

Turning to `C=C(C)[C@@H]1CC[C@]2(C(=O)O)CC[C@]3(C)[C@H](CC[C@@H]4[C@@]5(C)CCC(NCCO)C(C)(C)[C@@H]5CC[C@]43C)[C@@H]12` (stereo partly drawn) [Compound 77, (1R,3aS,5aR,5bR,7aR,11aR,11bR,13aR,13bR)-9-(2-hydroxyethylamino)-5a,5b,8,8,11a-pentamethyl-1-(prop-1-en-2-yl)icosahydro-1H-cyclopenta[a]chrysene-3a-carboxylic acid], the IC50 in the data set on Daoy (glioblastoma) was below 2 µg/mL; with MCF-7 (breast carcinoma), 35 µg/mL (≈ 70 µM); with A-375 (melanoma) it was 14 µg/mL (≈ 28 µM); in data set [1], 28 µg/mL (≈ 56 µM); in the data set on HT-29 (colon carcinoma), 16 µg/mL (≈ 32 µM); in the data set with SK-MEL-2 (melanoma), 36 µg/mL (≈ 72 µM).
